Experimental data: article PMC2694832, “Pharmacokinetics, tissue distribution and mass balance of radiolabeled dihydroartemisinin in male rats” (Malaria Journal, 2009)
Like-named read-outs stand apart in the source and are kept apart here. One block for each compound: values may come before it.

Assays:
[1] = rats; cited from earlier work
[2] = Pharmacokinetic study of [^14C] DHA and unchanged DHA, single i.v. dose; type: in vivo, rats
Experimental: Traditional PK studies involve intermittent blood sampling and subsequent determination of drug concentrations in whole blood and plasma. The Culex automated blood sampler provides a way for blood withdrawal at preprogrammed intervals, which is more accurate and less labor intensive. Six rats in the PK group were implanted with a jugular vein catheter under an isofluorane anesthaesia. After the surgery, rats were allowed to recover for 96 hours with free access to food and water. The rats were dosed single i.v. at 3 mg/ml/kg with [^14C] DHA (20 μCi/kg), which was prepared as a 25% cremophore/0.9% saline solution, through the tail vein. […] PK evaluation of [^14C] DHA in plasma and whole blood, as well as unchanged DHA in plasma was conducted in individual rats.
Total radioactivity in the collected tissue samples were quantified in duplicate. Weighed tissue aliquots (~0.2 g) were digested overnight in 2 ml of Solvable® tissue solubilizer (Perkin-Elmer Life and Analytical Sciences, Boston, MA) at 50°C. Coloured samples were decolourized by adding a maximum of 0.2 ml of 30% H2O2 for 30–60 minutes. Scintillation cocktail (Hyonic Fluor; Perkin-Elmer Boston. Massachusetts, USA) was then added and radioactivity determined in a Perkin-Elmer Tri-Carb 3100 TR scintillation spectrophotometer (Packard Instrument Co., Downers Grove, Illinois, USA). Faeces and intestinal contents were thoroughly homogenized before taking aliquots. Plasma was also analysed using the HPLC-ECD system to measure the concentration of unchanged DHA, as described by Li et al.
The analysis of cold DHA in plasma was performed according to a previously described HPLC method with the following modifications: for simultaneous determination of artemisinin and DHA (artemisinin as an internal standard), the Agilent Eclipse XDB-C18 column 5 μm (4.6 × 150 mm) was used with an isocratic mobile phase consisting of 40% acetonitrile: 60% ESA Acid Metabolite A (70–4835) in the reductive mode (-400 mV) for the quantification of DHA. Validation and reproducibility were evaluated and a lower limit of quantitation (LLQ) of 2.31 ng/ml for DHA was determined. The inter- and intra-day coefficient of variation for accuracy and precision were all within ± 10%.
For pharmacokinetics, the concentration-time data of [^14C] DHA in plasma and whole blood collected during the 192 hour treatment period was fitted to a three-compartment open model using a nonlinear, extended least-square fitting procedure (WinNonlin 5.2, Pharsight Corporation, Cary, NC) using weighted (1/concentration) nonlinear regression. The area under the curve (AUC) was determined by the linear trapezoidal rule with extrapolation to infinity based on the concentration of the last time point divided by the terminal rate constant. Extrapolations to time zero were done using zero concentration for intravenous dosing and using C0 values determined from the three-compartment model equation at time zero by i.v. route. Mean clearance rate (CL) was determined by dividing the dose by the AUCinf for i.v. injection. Mean residence time (MRT) was determined by dividing the area under the first moment curve (AUMC) by the AUC. The volume of distribution at steady state (Vss) was calculated as the product of CL and MRT. The concentration-time data of unchanged DHA was fitted to a two-compartment open model. Statistical analysis was conducted with Microsoft Excel using a Student's t-test for dependent samples to compare means of paired and unpaired samples between two groups.

[3] = Mass balance and urinary/faecal elimination of [^14C] DHA; type: in vivo, rats; settings: rats i.v.
Experimental: Metabolic cages were washed with a solution of 2% Count-off® (Perkin-Elmer Life and Analytical Sciences, Boston, Massachusetts, USA) and the volume was measured. Duplicate portions (0.1 ml urine; 1 ml cage rinse) of each sample were radio-assayed after the addition of scintillation cocktail. The weights of individual faecal samples were obtained and the samples were subsequently homogenized in four volumes of de-ionized water. Quadruplicate portions (1.0 ml) of each homogenate were decolourized with 30% hydrogen peroxide, and digested with Solvable® tissue solubilizer. After acidification with glacial acetic acid and addition of scintillation cocktail, samples were assayed for radioactivity. The samples were kept in at -20°C for two weeks prior to analysis.

rat plasma proteins = assay: Protein binding of [^14C] DHA, equilibrium dialysis, rat plasma; type: in vitro ADME
Experimental: (§1) Human blood samples (five men and five women) were freshly obtained from subject volunteers at the Department of Clinical Trials, WRAIR. Rat samples were freshly collected from five male and five female rats. Equilibrium dialysis was performed using Teflon dialysis chambers and Diachema standard membranes as described by Li and Hümpel. The GD-4/90 Equilibrium Dialyzer (MM Developments, Ottawa) contained 20 micro-dialysis cells (2.0 ml/chamber). The molecular weight cutoff for dialysis membranes was 5000 D. Equilibrium was reached after four hours, when cells were rotated at 16 rpm and 37°C. Drugs were dissolved in plasma samples with various concentrations (0.15 – 57800 ng/ml) and all experiments were carried out for five hours.

human plasma proteins = assay: Protein binding of [^14C] DHA, equilibrium dialysis, human plasma; type: in vitro ADME; settings: both sexes; undiluted human plasma, 0.15 to 57800 ng/ml, 37°C, five hours; read-out: plasma protein binding percentage
Experimental: as §1

[4] = unchanged DHA in plasma, rats single i.v. 3 mg/kg

SMILES: C[C@H]1[C@H](OC(=O)CCC(=O)O)O[C@@H]2O[C@@]3(C)CC[C@H]4[C@H](C)CC[C@@H]1[C@@]24OO3 [Artesunate]
plasma half-life of unchanged AS, first phase [1]: 8.4 min

AUC(0-inf) ([2]; rat, iv, unchanged DHA in plasma, two-compartment, rats single i.v. 3 mg/kg): 933 ± 125 ng·h/mL | MRT ([2]; rat, iv, unchanged DHA in plasma, two-compartment, rats single i.v. 3 mg/kg, read-out: MRT): 29.4 ± 7.2 min | Vd ([2]; rat, iv, unchanged DHA in plasma, two-compartment, rats single i.v. 3 mg/kg, read-out: Vss): 1.66 ± 0.54 L/kg | AUC ([2]; rat, iv, unchanged DHA in plasma, rats i.v. 3 mg/kg): 933 ng·h/mL | Tmax ([2]; rat, iv, unchanged DHA in plasma, rats single i.v. 3 mg/kg, read-out: Tmax): 1.2 min | clearance ([2]; rat, plasma, iv, 3 mg/kg, unchanged DHA in plasma, two-compartment, rats single i.v. 3 mg/kg): 55.8 mL/min/kg | Cmax ([2]; rat, plasma, iv, 3 mg/kg, unchanged DHA in plasma, two-compartment, rats single i.v. 3 mg/kg, read-out: Cmax): 2000 ± 507 ng/mL | half-life ([2]; rat, plasma, iv, 3 mg/kg, unchanged DHA in plasma, two-compartment, rats single i.v. 3 mg/kg, read-out: t1/2 – alpha (converted)): 15 ± 2.4 min | half-life ([2]; rat, plasma, iv, 3 mg/kg, unchanged DHA in plasma, two-compartment, rats single i.v. 3 mg/kg, read-out: t1/2 – beta (terminal) (converted)): 61.8 ± 11.4 min | Cmax ([2]; rat, plasma, iv, 3 mg/kg, unchanged DHA in plasma, rats single i.v. 3 mg/kg, read-out: Cmax at first peak): 2000 ± 507 ng/mL | Cmax ([2]; rat, plasma, iv, 3 mg/kg, unchanged DHA in plasma, rats single i.v. 3 mg/kg, read-out: Cmax at second peak): 1640 ± 468 ng/mL | duration of total radioactivity (long-lasting metabolites) ([2]; rats, plasma, urine and faeces, single i.v. 3 mg/20 μCi/kg): > 192 h | time to complete elimination of unchanged DHA ([2]; rats, single i.v. 3 mg/kg): ≤ 6 h | CL ([2]; unchanged DHA in plasma, two-compartment, rats single i.v. 3 mg/kg, 3 mg/kg): 55.8337 ± 7.0562 mL/min/kg | time of second peak ([2]; unchanged DHA in plasma, rats i.v. 3 mg/kg): 23 min | time of first peak [2, 4]: 0.02 h | time of second peak [2, 4]: 22.8 min | elimination via metabolism (hydrolysis and oxidation) [3]: 99% | unchanged DHA eliminated by direct excretion from kidneys [3]: < 1 % of dose | fraction unbound at 5 h (rat plasma proteins; both sexes, undiluted rat plasma, 0.15 to 57800 ng/ml, 37°C, five hours, read-out: plasma protein binding percentage): 0.18 to 0.24 | dependence of binding capacity on drug concentration (rat plasma proteins; rat plasma): not significantly different | fraction unbound at 5 h (human plasma proteins): 0.18 to 0.24
SMILES: C[C@H]1[C@@H](O)O[C@@H]2O[C@@]3(C)CC[C@H]4[C@H](C)CC[C@@H]1[C@@]24OO3 [DHA, 10'dihydro-artemisinin]
